In PubChem BioAssay (NCI):
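Results reflect a 48-hour exposure of cells in 96-well plates to compound at five concentrations. TGI: concentration producing complete growth inhibition.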

Experiments:
Assay in all cases: NCI tumour cell line growth inhibition, 48 h
HT29 colon = test system: HT29 colon
HCC-2998 colon = test system: HCC-2998 colon
SF-268 CNS = test system: SF-268 CNS
CAKI-1 renal = test system: CAKI-1 renal
HOP-92 NSCLC = test system: HOP-92 NSCLC
SK-MEL-2 melanoma = test system: SK-MEL-2 melanoma
U251 CNS = test system: U251 CNS
SK-MEL-5 melanoma = test system: SK-MEL-5 melanoma
DU-145 prostate = test system: DU-145 prostate
SNB-19 CNS = test system: SNB-19 CNS
CCRF-CEM leukemia = test system: CCRF-CEM leukemia
MDA-MB-231 breast = test system: MDA-MB-231 breast
PC-3 prostate = test system: PC-3 prostate
OVCAR-3 ovarian = test system: OVCAR-3 ovarian

| Structure (SMILES) | TGI (HT29 colon) [µM] | TGI (HCC-2998 colon) [µM] | TGI (SF-268 CNS) [µM] | TGI (CAKI-1 renal) [µM] | TGI (HOP-92 NSCLC) [µM] | TGI (SK-MEL-2 melanoma) [µM] | TGI (U251 CNS) [µM] | TGI (SK-MEL-5 melanoma) [µM] | TGI (DU-145 prostate) [µM] | TGI (SNB-19 CNS) [µM] | TGI (CCRF-CEM leukemia) [µM] | TGI (MDA-MB-231 breast) [µM] | TGI (PC-3 prostate) [µM] | TGI (OVCAR-3 ovarian) [µM] |
| --- | --- | --- | --- | --- | --- | --- | --- | --- | --- | --- | --- | --- | --- | --- |
| CCNc1nnc(-c2ccccc2Nc2ccccc2-c2nnc(NCC)s2)s1 | 60.5 | 27.8 | 68.6 | 17 | 54.2 | 31 | > 55.4 | 25.6 | 40.1 | > 100 | 31.4 | 25.7 | > 69.4 | > 100 |
| CCC1CCC2c3c([nH]c4ccc(C)cc34)C3C(=O)N(N(C)C)C(=O)C3C2C1 (stereo not given) | > 100 | > 100 | > 59.8 | > 100 | > 100 | > 100 | > 100 | > 100 | > 100 | > 100 | > 100 | > 100 | > 100 | 2.98 |
| COc1ccc(-c2nc3c(C(=O)NCCN(C)C)cccc3c3ccccc23)cc1 | 7.78 | 3.85 | 24.5 | 7.05 | 12.3 | 18.4 | 10.1 | 3.3 | 17.4 | 11.7 | 10.3 | 12.2 | 13.7 | 16.6 |
| CN1CC2=C(NC(=S)NC2c2ccccc2Cl)/C(=C/c2ccccc2Cl)C1 (stereo not given) | > 100 | > 100 | > 100 | > 100 | 99.1 | > 100 | > 100 | 32.3 | > 100 | > 100 | > 100 | > 100 | > 100 | > 100 |
| CC(C)Cn1cnc2c(Cl)nc3ccccc3c21 | > 100 | > 100 | > 100 | > 100 | > 100 | > 100 | > 100 | 42.2 | > 100 | > 100 | > 100 | > 100 | > 100 | > 100 |
| O=[N+]([O-])C(/C=C(\Cl)[N+](=O)[O-])=C(N1CCCCC1)N1CCCCC1 | > 100 | > 100 | > 100 | > 100 | > 100 | > 100 | > 100 | 46.5 | > 100 | > 100 | 59 | > 100 | > 100 | 54.7 |
| C(#CC1(Nc2ccccc2)CCN(Cc2ccccc2)CC1)C1(Nc2ccccc2)CCN(Cc2ccccc2)CC1 | 39.4 | > 100 | 47.8 | 44.5 | 33.9 | 20.1 | 43.6 | 18.3 | > 56.2 | 52.9 | 37.3 | 42.8 | 36.5 | > 97.1 |
| Cc1ccc(C(=O)Oc2ccc(/C=C3\CCC/C(=C\c4ccc(OC(=O)c5ccc(C)cc5)cc4)C3=O)cc2)cc1 | > 100 | > 100 | > 100 | > 100 | > 100 | > 100 | > 100 | > 100 | > 100 | > 100 | > 100 | > 100 | > 100 | > 100 |
| COc1cc(C2OC[C@@H]3C(=O)OC[C@H]23)cc(O)c1OC (stereo not given in full) | > 100 | > 100 | > 100 | > 100 | > 100 | > 100 | > 100 | > 100 | > 100 | > 100 | > 100 | > 100 | > 100 | > 100 |
| CCCC(=O)OC[n+]1ccc(-c2c(COC(=O)NC(C)C)c(COC(=O)NC(C)C)c3n2CCC3)cc1 | > 100 | > 100 | > 100 | > 100 | > 100 | > 100 | > 100 | > 100 | > 100 | > 100 | > 100 | > 100 | > 100 | > 100 |
| C=C(Cl)C(C)(Cl)CCC(Cl)C(C)C (stereo not given) | > 100 | > 100 | > 100 | > 100 | > 100 | > 100 | > 100 | > 100 | > 100 | > 100 | > 100 | > 100 | > 100 | > 100 |
| CC(=O)NC1COC(COC(=O)CCCCCCCCCCNC(=O)c2ccc([N+](=O)[O-])c3c(=O)c4ccccc4[nH]c23)C(O)C1OC(C)C(=O)NC(C(=O)NC(CCC(N)=O)C(=O)OCc1ccccc1)C(C)C (stereo not given) | 22.2 | 14.3 | 32.8 | 23.4 | 31.5 | 28.7 | 27.9 | 57.9 | 12.3 | 18.5 | 62.7 | > 100 | 26.4 | 9.57 |
| Cc1cccc(C)c1N=Nc1ccc(O)c(CN(C)C)c1 | 69.6 | 48.8 | > 100 | > 100 | > 100 | 88.8 | > 100 | 25.2 | > 100 | > 100 | > 100 | > 100 | > 100 | > 100 |
| CC(C)(C)n1c(=O)n2n(c1=O)C1c3cccc4cccc(c34)C2C2c3cccc4cccc(c34)C1n1c(=O)n(C(C)(C)C)c(=O)n12 | > 100 | > 100 | > 100 | > 100 | > 100 | > 100 | > 100 | > 100 | > 100 | > 100 | > 100 | > 100 | > 100 | 60 |
| O=C1/C(=C/c2ccc(O)c(O)c2)CC/C1=C\c1ccc(O)c(O)c1 | > 100 | > 100 | 26.7 | > 57.7 | 76.1 | > 72.7 | 27.4 | > 60.3 | > 100 | 66.4 | 9.81 | > 100 | > 100 | 32 |
